Where two headings read alike, the source gives them in different places.
Key:
HIV-1 [1] = assay: Study 5 overall: resistance of naive PBMCs to HIV-1 challenge (RT activity and P-24 assay); type: cell-based; conditions: monocytes and macrophages incubated with hyaluronidase treated heat inactivated or Aldrathiol-2 treated virus
Procedure: Control groups were not treated with the enzyme. The virus was then titrated on macrophage/monocyte cultures and incubated at 37° C. for 48 hours at which time the macrophages and monocytes were washed 3×, resuspended and placed in fresh wells. Naïve PBMC's were overlayed on the macrophage/monocyte cultures and incubated at 37° C. for 72 hours. The PBMC's were then separated, washed and placed in fresh wells with fresh medium and rested for 48 hours. After a 48 hour rest period, the PBMC's were challenged with HIV-1 with and without PHA, I1-2, or both. […] These various assays are presented below in Table 10 .

HIV-1 [2] = conditions: Assay #7
Procedure: Reverse transcriptase (RT) activity was measured in cell-free supernatants. Tritiated thymidine triphosphate (NEN) (TTP) was resuspended in distilled H2O at 5 Cl/mL. Poly rA and oligo dT were prepared as a stock solution which was kept at −20° C. The RT reaction buffer was prepared fresh on a daily basis and consists of 125 μL 1.0 M EGTA, 125 μL d H2O, 110 μL 10% SDS, 50 μL 1.0 M Tris (pH 7.4), 50 μL 1.0 M DTT, and 40μ1.0 M MgCl2. These three solutions were mixed together in a ratio of 2 parts TTP, 1 part poly rA:oligo dT, and 1 part reaction buffer. Ten microliters of this reaction mixture was placed in a round bottom microtiter plate and 15 μL of virus containing supernatant was added and mixed. The plate was incubated at 37° C. in a water bath with a solid support to prevent submersion of the plate and incubated for 60 minutes. Following reaction, the reaction volume was spotted onto pieces of DE81 paper, washed 5 times for 5 minutes each in a 5% sodium phosphate buffer, 2 times for 1 minute each in distilled water, 2 times for 1 minute each in 70% ethanol, and then dried. Opti-Fluor O was added to each sample and incorporated radioactivity was quantitated utilizing a Wallace 1450 Microbetaplus liquid scintillation counter.

IIIB (HIV IIIB virus) = assay: Study 4 sensitization, Turpin and standard macrophages: RT activity after IIIB challenge; type: cell-based
Procedure: (§1) Percent virus control (% VC) in the following tables is the mean RT activity (cpm) as a percentage of a virus control. Percent cell control (% CC) is the mean XTT absorbance as a percentage of a cell control.
Reverse transcriptase (RT) activity was measured in cell-free supernatants. Tritiated thymidine triphosphate (NEN) (TTP) was resuspended in distilled H2O at […]. Poly rA and oligo dT were prepared as a stock solution which was kept at −20° C. The RT reaction buffer was prepared fresh on a daily basis and consists of 125 μL 1.0 M EGTA, 125 μL d H2O, 110 μL 10% SDS, 50 μL 1.0 M Tris (pH 7.4), 50 μL 1.0 M DTT, and 40μ1.0 M MgCl2. These three solutions were mixed together in a ratio of 2 parts TTP, 1 part poly rA:oligo dT, and 1 part reaction buffer. Ten microliters of this reaction mixture was placed in a round bottom microtiter plate and 15 μL of virus containing supernatant was added and mixed. The plate was incubated at 37° C. in a water bath with a solid support to prevent submersion of the plate and incubated for 60 minutes. Following reaction, the reaction volume was spotted onto pieces of DE81 paper, washed 5 times for 5 minutes each in a 5% sodium phosphate buffer, 2 times for 1 minute each in distilled water, 2 times for 1 minute each in 70% ethanol, and then dried. Opti-Fluor O was added to each sample and incorporated radioactivity was quantitated utilizing a Wallace 1450 Microbetaplus liquid scintillation counter.
(§2) The macrophage plates were then washed with HBSS multiple times. Fresh mixed pha blast PBMCs (5×10e4/well) were placed on the macrophage cells, allowed to incubate for 72 hours and then harvested and reset in a fresh 96 well plate. The PBMCs were then challenged overnight with the respective virus (IIIB or Rojo) at a standard MOI for that virus. The PBMCs were 5× in plate spin washed with DPBS, incubated 24 hours, at which time 5×10e4 fresh pha blast PBMCs/well were added. The culture was incubated an additional 6 days and then assayed for RT activity.
(§3) Where viability corrections were conducted, they were performed by dividing the RT CPM value by the toxicity absorbance in order to compensate for well to well variations noted in the cell titer toxicity noted.

PBMCs = assay: Study 4 sensitization: cell viability; type: cell-based, human
Procedure: as §1, §2, §3

[3] = 0.097656 μg/mL, GP120IIIB Sensitized, Standard
[4] = 0.097656 μg/mL, IIIB Sensitized, Standard
[5] = 0.390625 μg/mL, GP120IIIB Sensitized, Turpin
[6] = 1.5625 μg/mL, GP120IIIB Sensitized, Turpin
[7] = 6.25 μg/mL, GP120IIIB Sensitized, Turpin
[8] = 6.25 μg/mL, IIIB Sensitized, Standard

Hyaluronidase
resistance of naïve PBMC's to HIV-1 challenge (HIV-1 [1]): up to 100%
% Control (HIV-1 [2]; 5 mg/mL): 111.3%
Mean RT (HIV-1 [2]; 5 mg/mL): 18777.7 cpm
% Control (HIV-1 [2]; 10 mg/mL): 122.2%
Mean RT (HIV-1 [2]; 10 mg/mL): 20614.7 cpm
% Control (HIV-1 [2]; 20 mg/mL): 162.7%
Mean RT (HIV-1 [2]; 20 mg/mL): 27462 cpm
% Control, Sum (HIV-1 [2]; Sum over 20, 10, 5 mg/mL): 396.2%
Mean RT, Sum (HIV-1 [2]; Sum over 20, 10, 5 mg/mL): 66854.4 cpm
RT activity % VC (IIIB (HIV IIIB virus); [3]): 176.4%
RT activity % VC (IIIB (HIV IIIB virus); 0.097656 μg/mL, GP120IIIB Sensitized, Turpin): 89.0%
RT activity % VC (IIIB (HIV IIIB virus); [4]): 145.2%
RT activity % VC (IIIB (HIV IIIB virus); 0.097656 μg/mL, IIIB Sensitized, Turpin): 98.7%
RT activity % VC (IIIB (HIV IIIB virus); 0.195313 μg/mL, GP120IIIB Sensitized, Standard): 102.8%
RT activity % VC (IIIB (HIV IIIB virus); 0.195313 μg/mL, GP120IIIB Sensitized, Turpin): 108.1%
RT activity % VC (IIIB (HIV IIIB virus); 0.195313 μg/mL, IIIB Sensitized, Standard): 178.1%
RT activity % VC (IIIB (HIV IIIB virus); 0.195313 μg/mL, IIIB Sensitized, Turpin): 95.8%
RT activity % VC (IIIB (HIV IIIB virus); 0.390625 μg/mL, GP120IIIB Sensitized, Standard): 87.7%
RT activity % VC (IIIB (HIV IIIB virus); [5]): 83.5%
RT activity % VC (IIIB (HIV IIIB virus); 0.390625 μg/mL, IIIB Sensitized, Standard): 181.3%
RT activity % VC (IIIB (HIV IIIB virus); 0.78125 μg/mL, GP120IIIB Sensitized, Standard): 94.5%
RT activity % VC (IIIB (HIV IIIB virus); 0.78125 μg/mL, GP120IIIB Sensitized, Turpin): 105.6%
RT activity % VC (IIIB (HIV IIIB virus); 0.78125 μg/mL, IIIB Sensitized, Standard): 129.9%
RT activity % VC (IIIB (HIV IIIB virus); 0.78125 μg/mL, IIIB Sensitized, Turpin): 100.0%
RT activity % VC (IIIB (HIV IIIB virus); 1.5625 μg/mL, GP120IIIB Sensitized, Standard): 100.7%
RT activity % VC (IIIB (HIV IIIB virus); [6]): 58.0%
RT activity % VC (IIIB (HIV IIIB virus); 1.5625 μg/mL, IIIB Sensitized, Standard): 203.0%
RT activity % VC (IIIB (HIV IIIB virus); 1.5625 μg/mL, IIIB Sensitized, Turpin): 68.3%
RT activity % VC (IIIB (HIV IIIB virus); 3.125 μg/mL, GP120IIIB Sensitized, Standard): 82.3%
RT activity % VC (IIIB (HIV IIIB virus); 3.125 μg/mL, GP120IIIB Sensitized, Turpin): 71.2%
RT activity % VC (IIIB (HIV IIIB virus); 3.125 μg/mL, IIIB Sensitized, Standard): 120.8%
RT activity % VC (IIIB (HIV IIIB virus); 6.25 μg/mL, GP120IIIB Sensitized, Standard): 106.5%
RT activity % VC (IIIB (HIV IIIB virus); [7]): 72.2%
RT activity % VC (IIIB (HIV IIIB virus); [8]): 234.4%
RT activity % VC (IIIB (HIV IIIB virus); 6.25 μg/mL, IIIB Sensitized, Turpin): 70.0%
RT activity % VC (IIIB (HIV IIIB virus); 25 μg/mL, GP120IIIB Sensitized, Standard): 70.6%
RT activity % VC (IIIB (HIV IIIB virus); 25 μg/mL, GP120IIIB Sensitized, Turpin): 52.1%
RT activity % VC (IIIB (HIV IIIB virus); 25 μg/mL, IIIB Sensitized, Standard): 99.8%
RT activity % VC (IIIB (HIV IIIB virus); 25 μg/mL, IIIB Sensitized, Turpin): 23.6%
RT activity % VC (IIIB (HIV IIIB virus); viability corrected, 0.097656 μg/mL, GP120IIIB Sensitized, Standard): 105.6%
RT activity % VC (IIIB (HIV IIIB virus); viability corrected, 0.097656 μg/mL, GP120IIIB Sensitized, Turpin): 116.0%
RT activity % VC (IIIB (HIV IIIB virus); viability corrected, 0.097656 μg/mL, IIIB Sensitized, Standard): 103.7%
RT activity % VC (IIIB (HIV IIIB virus); viability corrected, 0.097656 μg/mL, IIIB Sensitized, Turpin): 95.3%
RT activity % VC (IIIB (HIV IIIB virus); viability corrected, 0.195313 μg/mL, GP120IIIB Sensitized, Standard): 83.8%
RT activity % VC (IIIB (HIV IIIB virus); viability corrected, 0.195313 μg/mL, GP120IIIB Sensitized, Turpin): 111.2%
RT activity % VC (IIIB (HIV IIIB virus); viability corrected, 0.195313 μg/mL, IIIB Sensitized, Standard): 141.1%
RT activity % VC (IIIB (HIV IIIB virus); viability corrected, 0.195313 μg/mL, IIIB Sensitized, Turpin): 110.9%
RT activity % VC (IIIB (HIV IIIB virus); viability corrected, 0.390625 μg/mL, GP120IIIB Sensitized, Standard): 74.2%
RT activity % VC (IIIB (HIV IIIB virus); viability corrected, 0.390625 μg/mL, GP120IIIB Sensitized, Turpin): 122.4%
RT activity % VC (IIIB (HIV IIIB virus); viability corrected, 0.390625 μg/mL, IIIB Sensitized, Standard): 177.8%
RT activity % VC (IIIB (HIV IIIB virus); viability corrected, 0.390625 μg/mL, IIIB Sensitized, Turpin): 98.3%
RT activity % VC (IIIB (HIV IIIB virus); viability corrected, 0.78125 μg/mL, GP120IIIB Sensitized, Standard): 100.5%
RT activity % VC (IIIB (HIV IIIB virus); viability corrected, 0.78125 μg/mL, GP120IIIB Sensitized, Turpin): 115.4%
RT activity % VC (IIIB (HIV IIIB virus); viability corrected, 0.78125 μg/mL, IIIB Sensitized, Standard): 117.6%
RT activity % VC (IIIB (HIV IIIB virus); viability corrected, 0.78125 μg/mL, IIIB Sensitized, Turpin): 95.5%
RT activity % VC (IIIB (HIV IIIB virus); viability corrected, 1.5625 μg/mL, GP120IIIB Sensitized, Standard): 97.2%
RT activity % VC (IIIB (HIV IIIB virus); viability corrected, 1.5625 μg/mL, GP120IIIB Sensitized, Turpin): 74.4%
RT activity % VC (IIIB (HIV IIIB virus); viability corrected, 1.5625 μg/mL, IIIB Sensitized, Standard): 189.1%
RT activity % VC (IIIB (HIV IIIB virus); viability corrected, 1.5625 μg/mL, IIIB Sensitized, Turpin): 79.6%
RT activity % VC (IIIB (HIV IIIB virus); viability corrected, 3.125 μg/mL, GP120IIIB Sensitized, Standard): 76.1%
RT activity % VC (IIIB (HIV IIIB virus); viability corrected, 3.125 μg/mL, GP120IIIB Sensitized, Turpin): 79.0%
RT activity % VC (IIIB (HIV IIIB virus); viability corrected, 3.125 μg/mL, IIIB Sensitized, Standard): 115.2%
RT activity % VC (IIIB (HIV IIIB virus); viability corrected, 3.125 μg/mL, IIIB Sensitized, Turpin): 106.2%
RT activity % VC (IIIB (HIV IIIB virus); viability corrected, 6.25 μg/mL, GP120IIIB Sensitized, Standard): 95.2%
RT activity % VC (IIIB (HIV IIIB virus); viability corrected, 6.25 μg/mL, GP120IIIB Sensitized, Turpin): 96.0%
RT activity % VC (IIIB (HIV IIIB virus); viability corrected, 6.25 μg/mL, IIIB Sensitized, Standard): 181.7%
RT activity % VC (IIIB (HIV IIIB virus); viability corrected, 6.25 μg/mL, IIIB Sensitized, Turpin): 63.4%
RT activity % VC (IIIB (HIV IIIB virus); viability corrected, 25 μg/mL, GP120IIIB Sensitized, Standard): 81.6%
RT activity % VC (IIIB (HIV IIIB virus); viability corrected, 25 μg/mL, GP120IIIB Sensitized, Turpin): 54.1%
RT activity % VC (IIIB (HIV IIIB virus); viability corrected, 25 μg/mL, IIIB Sensitized, Standard): 124.6%
RT activity % VC (IIIB (HIV IIIB virus); viability corrected, 25 μg/mL, IIIB Sensitized, Turpin): 26.6%
cell viability % CC (PBMCs; [3]): 167.6%
cell viability % CC (PBMCs; [4]): 138.2%
cell viability % CC (PBMCs; [5]): 67.6%
cell viability % CC (PBMCs; [6]): 73.4%
cell viability % CC (PBMCs; [7]): 73.2%
cell viability % CC (PBMCs; [8]): 133.5%
cell viability % CC (PBMCs; 25 μg/mL, Rojo Sensitized, Turpin): 75.0%
cell viability % CC (PBMCs; Table 9, 0.097656 μg/mL, GP120IIIB Sensitized, Standard): 167.6%
cell viability % CC (PBMCs; Table 9, 0.097656 μg/mL, IIIB Sensitized, Standard): 138.2%
cell viability % CC (PBMCs; Table 9, 0.390625 μg/mL, GP120IIIB Sensitized, Turpin): 67.6%
cell viability % CC (PBMCs; Table 9, 1.5625 μg/mL, GP120IIIB Sensitized, Turpin): 73.4%
cell viability % CC (PBMCs; Table 9, 6.25 μg/mL, GP120IIIB Sensitized, Turpin): 73.2%
cell viability % CC (PBMCs; Table 9, 6.25 μg/mL, IIIB Sensitized, Standard): 133.5%
cell viability % CC (PBMCs; Table 9, 25 μg/mL, Rojo Sensitized, Turpin): 75.0%
